Test results from the OligoGym collection.
Values joined by “and” are separate entries in the source; they are usually repeats but may differ in a detail not shown here. Equal values may be shown once. After the bases stand the sugars from the 5' end (letter, count) and the backbone: PS all phosphorothioate, else s phosphorothioate and o phosphodiester by linkage. Methylation of C is not given here. e = 2'-O-(2-methoxyethyl) (MOE); k = constrained ethyl (cEt); d = 2'-deoxy (DNA); m = 2'-O-methyl

Biological target: HSD17B13
Conditions: ASO, HepaRG

| Sequence | target mRNA inhibition (1 µM) | further results |
| --- | --- | --- |
| ACCACACTAATGAATC (sugars k3 d10 k3, PS) | 54% | – |
| ACCACATAGCTAACTC (sugars k3 d10 k3, PS) | 50% | – |
| ACCCAAGCTACCTCCA (sugars k3 d10 k3, PS) | 9% | – |
| ACCCTTAGGAAAGCTC (sugars k3 d10 k3, PS) | 52% | – |
| ACCGTATTCCCAACGC (sugars k3 d10 k3, PS) | 90% | target mRNA inhibition (0.02 µM): 14%; target mRNA inhibition (0.078 µM): 35%; target mRNA inhibition (0.313 µM): 76%; target mRNA inhibition (1.25 µM): 83%; target mRNA inhibition (5 µM): 94% |
| ACCGTTTTGGGCTAAT (sugars kkdddddddddkekek, PS) | 76% | target mRNA inhibition (0.02 µM): 23%; target mRNA inhibition (0.078 µM): 24%; target mRNA inhibition (0.313 µM): 37%; target mRNA inhibition (1.25 µM): 66%; target mRNA inhibition (5 µM): 78% |
| ACCGUTTTGGGCTAAT (sugars k3 d1 m1 d8 k3, PS) | 65% | – |
| ACCTATGGTCTAACAC (sugars k3 d10 k3, PS) | 14% | – |
| ACCTCAAATGTCTTGG (sugars k3 d10 k3, PS) | 17% | – |
| ACCTGATTTAGAGAGC (sugars k3 d10 k3, PS) | 65% | – |
| ACCTTATTAATATCCC (sugars k3 d10 k3, PS) | 71% and 50% | target mRNA inhibition (0.02 µM): 0%; target mRNA inhibition (0.078 µM): 0%; target mRNA inhibition (0.313 µM): 0%; target mRNA inhibition (1.25 µM): 72%; target mRNA inhibition (5 µM): 90% |
| ACCTTCCCTGTGTAAA (sugars k3 d10 k3, PS) | 60% | – |
| ACGCATGCGCAGTGAC (sugars k3 d10 k3, PS) | 52% | – |
| ACTAATATTGAGGCAC (sugars k3 d9 k3 e1, PS) | 62% | – |
| ACTAATCTCAGTACTC (sugars k3 d10 k3, PS) | 45% | – |
| ACTAATGAATCATGAT (sugars k3 d10 k3, PS) | 39% | – |
| ACTACAAGAGGTTATT (sugars k3 d1 m1 d8 k3, PS) | 29% | – |
| ACTACAAGAGGTTATT (sugars kkdddddddddkekek, PS) | 42% | – |
| ACTATGTAATAGGCAG (sugars k3 d10 k3, PS) | 85% | target mRNA inhibition (0.02 µM): 33%; target mRNA inhibition (0.078 µM): 31%; target mRNA inhibition (0.313 µM): 71%; target mRNA inhibition (1.25 µM): 88%; target mRNA inhibition (5 µM): 94% |
| ACTCGGGAAGTTTAGA (sugars k3 d10 k3, PS) | 26% | – |
| ACTGAAATTGATACAC (sugars k3 d10 k3, PS) | 49% | – |
| ACTGAAGGCTGTGTAC (sugars k3 d10 k3, PS) | 14% | – |
| ACTGATTTAGTTGGTA (sugars k3 d10 k3, PS) | 55% | – |

| Sequence | target mRNA inhibition (1 µM) | further results |
| --- | --- | --- |
| ACTGTCCCAGCATTAT (sugars k3 d10 k3, PS) | 40% | – |
| ACTGTGACGATGTGGC (sugars k3 d10 k3, PS) | 40% | – |
| ACTTCATAGTGGACTT (sugars k3 d10 k3, PS) | 61% | – |
| ACTTGAATTCTGTGTC (sugars k3 d10 k3, PS) | 52% | – |
| AGAAGATCGGCTGGAT (sugars k3 d10 k3, PS) | 29% | – |
| AGAATAGAGTTGCACC (sugars kkdddddddddkekek, PS) | 59% | – |
| AGAATAGTCTTCAGCA (sugars k3 d10 k3, PS) | 80% | – |
| AGAAUAGAGTTGCACC (sugars k3 d1 m1 d8 k3, PS) | 49% | – |
| AGACAGGGTGGTAACG (sugars k3 d10 k3, PS) | 51% | – |
| AGACATGAGGTTTTGA (sugars k3 d10 k3, PS) | 59% | – |
| AGACTTTGAGACTCTT (sugars k3 d10 k3, PS) | 57% | – |
| AGAGACATGAGGTTTT (sugars k3 d10 k3, PS) | 77% | target mRNA inhibition (0.02 µM): 18%; target mRNA inhibition (0.078 µM): 16%; target mRNA inhibition (0.313 µM): 47%; target mRNA inhibition (1.25 µM): 69%; target mRNA inhibition (5 µM): 85% |
| AGAGAGTAATCAGTTT (sugars k3 d1 m1 d8 k3, PS) | 25% | – |
| AGAGGCTAGGGAAATC (sugars k3 d10 k3, PS) | 63% | – |
| AGAGTTGCACCGTTTT (sugars k3 d9 k3 e1, PS) | 78% | target mRNA inhibition (0.02 µM): 0%; target mRNA inhibition (0.078 µM): 0%; target mRNA inhibition (0.313 µM): 26%; target mRNA inhibition (1.25 µM): 55%; target mRNA inhibition (5 µM): 45% |
| AGAGUCGGTCACCTTT (sugars k3 d1 m1 d8 k3, PS) | 55% | – |
| AGATAAAGCTGCCTGC (sugars k3 d1 m1 d8 k3, PS) | 35% | – |
| AGATAAAGCTGCCTGC (sugars k3 d9 k3 e1, PS) | 44% | – |
| AGATAAAGCTGCCTGC (sugars kkdddddddddkekek, PS) | 30% | – |
| AGATATTGATATACGA (sugars k3 d10 k3, PS) | 20% | – |
| AGATCGGCTGGATATA (sugars k3 d10 k3, PS) | 27% | – |
| AGCAAGCCAACAGAGA (sugars k3 d10 k3, PS) | 40% | – |
| AGCAGAATTGTGAACG (sugars k3 d1 m1 d8 k3, PS) | 51% | – |

| Sequence | target mRNA inhibition (1 µM) | further results |
| --- | --- | --- |
| AGCAGAATTGTGAACG (sugars k3 d9 k3 e1, PS) | 56% | – |
| AGCAGAATTGTGAACG (sugars k3 d10 k3, PS) | 67% | – |
| AGCATATTCATTTGGC (sugars k3 d10 k3, PS) | 61% | – |
| AGCATCAAGACATTCT (sugars k3 d10 k3, PS) | 79% | target mRNA inhibition (0.02 µM): 5%; target mRNA inhibition (0.078 µM): 15%; target mRNA inhibition (0.313 µM): 62%; target mRNA inhibition (1.25 µM): 78%; target mRNA inhibition (5 µM): 86% |
| AGCCAAACTGCTACTG (sugars k3 d10 k3, PS) | 78% | – |
| AGCCAGTACAGTTCCT (sugars k3 d1 m1 d8 k3, PS) | 65% | – |
| AGCCTAAAATTGTCTA (sugars k3 d10 k3, PS) | 53% | – |
| AGCGATAGATCTCTTC (sugars k3 d10 k3, PS) | 31% | – |
| AGCGGCAAATTTGCTG (sugars k3 d10 k3, PS) | 5% | – |
| AGCTAATGTATGAGGT (sugars k3 d10 k3, PS) | 56% | – |
| AGCTAGACAATTGCAA (sugars k3 d10 k3, PS) | 30% | – |
| AGGAGTAGTGGAGCCA (sugars k3 d10 k3, PS) | 16% | – |
| AGGATAGTCCATGCAA (sugars kkdddddddddkekek, PS) | 46% | – |
| AGGCAAGGATACCTGA (sugars k3 d10 k3, PS) | 42% | – |
| AGGCCATAATCTTGTG (sugars k3 d10 k3, PS) | 33% | – |
| AGGCTAAAATGGTCAT (sugars k3 d10 k3, PS) | 36% | – |
| AGGCTAGGGAAATCTT (sugars k3 d9 k3 e1, PS) | 55% | – |
| AGGCTAGGGAAATCTT (sugars k3 d10 k3, PS) | 62% | – |
| AGGCTTATGAAGTTAG (sugars k3 d10 k3, PS) | 57% | – |
| AGGCUAGGGAAATCTT (sugars k3 d1 m1 d8 k3, PS) | 41% | – |
| AGGGAATGTTATGTAC (sugars k3 d10 k3, PS) | 49% | – |
| AGGGAGACCATGCTGC (sugars k3 d10 k3, PS) | 79% | target mRNA inhibition (0.02 µM): 10%; target mRNA inhibition (0.078 µM): 28%; target mRNA inhibition (0.313 µM): 52%; target mRNA inhibition (1.25 µM): 59%; target mRNA inhibition (5 µM): 79% |
| AGGGTCCACTTTTGGT (sugars k3 d10 k3, PS) | 11% | – |

| Sequence | target mRNA inhibition (1 µM) | further results |
| --- | --- | --- |
| AGGTAGCTTTTGTCCA (sugars k3 d9 k3 e1, PS) | 58% | – |
| AGGTAGCTTTTGTCCA (sugars k3 d10 k3, PS) | 56% | – |
| AGGTAGCTTTTGTCCA (sugars kkdddddddddkekek, PS) | 26% | – |
| AGTAATTCTAAACTAG (sugars k3 d10 k3, PS) | 31% | – |
| AGTACCAAGACACTAA (sugars k3 d10 k3, PS) | 66% | – |
| AGTAGTGTAAGCTGAG (sugars k3 d9 k3 e1, PS) | 71% | – |
| AGTCGGTCACCTTTCA (sugars k3 d1 m1 d8 k3, PS) | 61% | – |
| AGTCGGTCACCTTTCA (sugars kkdddddddddkekek, PS) | 55% | – |
| AGTCTGCCTGCCTATT (sugars k3 d10 k3, PS) | 47% | – |
| AGTCTTAAACCTTCCC (sugars kkdddddddddkekek, PS) | 43% | – |
| AGTGCATCTTAAGATA (sugars k3 d1 m1 d8 k3, PS) | 17% | – |
| AGTGCCAAACCAATGT (sugars k3 d9 k3 e1, PS) | 60% | – |
| AGTGCCAAACCAATGT (sugars kkdddddddddkekek, PS) | 71% | target mRNA inhibition (0.02 µM): 13%; target mRNA inhibition (0.078 µM): 2%; target mRNA inhibition (0.313 µM): 40%; target mRNA inhibition (1.25 µM): 61%; target mRNA inhibition (5 µM): 83% |
| AGTGCTAAGTAGTAAT (sugars k3 d10 k3, PS) | 71% | – |
| AGTTAGAATAGTCTTC (sugars k3 d10 k3, PS) | 67% | – |
| AGTTAGCAGCTAAAAT (sugars k3 d10 k3, PS) | 33% | – |
| AGTTAGTATAGTTATC (sugars k3 d9 k3 e1, PS) | 47% | – |
| AGTTAGTATAGTTATC (sugars k3 d10 k3, PS) | 74% | target mRNA inhibition (0.02 µM): 35%; target mRNA inhibition (0.078 µM): 35%; target mRNA inhibition (0.313 µM): 60%; target mRNA inhibition (1.25 µM): 68%; target mRNA inhibition (5 µM): 84% |
| AGTTATTAGAAGTCAG (sugars k3 d9 k3 e1, PS) | 56% | – |
| AGTTTCCTCCACACCG (sugars k3 d10 k3, PS) | 28% | – |
| AGTTTTCACCTCAGGT (sugars k3 d10 k3, PS) | 82% | – |
| AGTTTTCGGCACTCAG (sugars k3 d10 k3, PS) | 16% | – |
